The source of these data is paper PMC3234597, “Two Panels of Steroid Receptor Luciferase Reporter Cell Lines for Compound Profiling” (Combinatorial Chemistry & High Throughput Screening, 2011).

Holding throughout (assay type): cell-based
The target in test [1] is T1, GR-LBD fused to Gal4-DBD (Homo sapiens, UniProt P04150).
T1 construct: expressed in transfected cells; host or cells: U2OS
T1 sequence (P04150 524-758 limits assumed): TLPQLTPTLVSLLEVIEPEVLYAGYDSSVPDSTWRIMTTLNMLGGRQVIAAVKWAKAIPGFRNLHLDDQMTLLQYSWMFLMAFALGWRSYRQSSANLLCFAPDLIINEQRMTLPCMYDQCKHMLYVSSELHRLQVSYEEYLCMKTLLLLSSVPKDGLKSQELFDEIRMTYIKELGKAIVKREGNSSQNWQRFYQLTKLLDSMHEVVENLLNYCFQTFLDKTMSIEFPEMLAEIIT
Description: U2OS-GR-LBD/9xGal4UAS luciferase reporter cell line. The note with it: for Log EC50: agonist mode, 20 h, log10 of molar EC50, mean ± SEM; for Log EC50 / Log IC50: GR-LBD/9xGal4UAS; for Log IC50: antagonist mode, in the presence of 5 nM dexamethasone, log10 of molar IC50, mean ± SEM.

The target of test [2] is T2, human GR (full-length) (Homo sapiens, UniProt P04150).
T2 construct: expression vectors encoding full-length steroid receptors: pcDNA3-hAR and pcDNA3-hGR; host or cells: U2OS
T2 sequence (P04150 1-777): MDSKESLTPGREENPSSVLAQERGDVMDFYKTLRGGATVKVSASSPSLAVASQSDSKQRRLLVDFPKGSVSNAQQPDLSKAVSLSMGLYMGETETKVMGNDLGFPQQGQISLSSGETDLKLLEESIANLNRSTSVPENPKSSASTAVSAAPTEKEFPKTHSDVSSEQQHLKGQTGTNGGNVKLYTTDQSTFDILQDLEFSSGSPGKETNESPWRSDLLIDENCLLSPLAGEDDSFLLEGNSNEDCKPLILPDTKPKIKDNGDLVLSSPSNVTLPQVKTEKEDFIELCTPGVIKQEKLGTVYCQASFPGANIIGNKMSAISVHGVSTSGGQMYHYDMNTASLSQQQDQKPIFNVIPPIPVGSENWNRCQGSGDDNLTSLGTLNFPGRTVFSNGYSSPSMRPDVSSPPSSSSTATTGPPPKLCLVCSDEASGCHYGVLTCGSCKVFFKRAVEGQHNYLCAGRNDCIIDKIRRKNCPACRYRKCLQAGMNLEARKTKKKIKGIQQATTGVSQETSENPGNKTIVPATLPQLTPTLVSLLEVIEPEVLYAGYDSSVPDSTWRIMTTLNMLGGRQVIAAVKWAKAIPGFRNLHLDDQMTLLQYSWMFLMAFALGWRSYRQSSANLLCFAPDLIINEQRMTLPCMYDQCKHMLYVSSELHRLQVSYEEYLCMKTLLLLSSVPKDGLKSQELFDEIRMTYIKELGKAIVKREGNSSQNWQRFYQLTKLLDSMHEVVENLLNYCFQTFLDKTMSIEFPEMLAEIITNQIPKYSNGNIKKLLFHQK
Description: U2OS-GR/3xGRE luciferase reporter cell line (full-length receptor). The note with it: for Log EC50: agonist mode, 20 h, log10 of molar EC50, mean ± SEM; for Log EC50 / Log IC50: GR/3xGRE; for Log IC50: antagonist mode, in the presence of 5 nM dexamethasone, log10 of molar IC50, mean ± SEM.

For test [3], the target named is T3, ERα^wt-LBD fused to Gal4-DBD (Homo sapiens, UniProt P03372).
T3 construct: ERα-LBD (amino acids 303-595) based on GenBank NM_000125; expressed in transfected cells; host or cells: U2OS
T3 sequence (P03372 303-595): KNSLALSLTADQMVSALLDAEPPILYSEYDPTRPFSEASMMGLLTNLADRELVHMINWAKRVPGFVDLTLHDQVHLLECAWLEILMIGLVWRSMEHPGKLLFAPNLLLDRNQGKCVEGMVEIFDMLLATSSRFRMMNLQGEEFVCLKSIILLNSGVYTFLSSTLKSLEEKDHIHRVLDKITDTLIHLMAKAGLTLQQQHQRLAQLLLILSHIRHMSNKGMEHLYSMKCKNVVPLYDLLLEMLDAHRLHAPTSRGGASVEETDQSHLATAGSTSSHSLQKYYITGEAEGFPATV
Briefly: U2OS-ERα^wt-LBD/9xGal4UAS luciferase reporter cell line. In general terms: Reporter assays use an easily measured gene product as a stand-in for the process of interest.

The target in test [4] is T4, human ERα (full-length) (Homo sapiens, UniProt P03372, G400V).
T4 sequence (P03372 1-595 G400V): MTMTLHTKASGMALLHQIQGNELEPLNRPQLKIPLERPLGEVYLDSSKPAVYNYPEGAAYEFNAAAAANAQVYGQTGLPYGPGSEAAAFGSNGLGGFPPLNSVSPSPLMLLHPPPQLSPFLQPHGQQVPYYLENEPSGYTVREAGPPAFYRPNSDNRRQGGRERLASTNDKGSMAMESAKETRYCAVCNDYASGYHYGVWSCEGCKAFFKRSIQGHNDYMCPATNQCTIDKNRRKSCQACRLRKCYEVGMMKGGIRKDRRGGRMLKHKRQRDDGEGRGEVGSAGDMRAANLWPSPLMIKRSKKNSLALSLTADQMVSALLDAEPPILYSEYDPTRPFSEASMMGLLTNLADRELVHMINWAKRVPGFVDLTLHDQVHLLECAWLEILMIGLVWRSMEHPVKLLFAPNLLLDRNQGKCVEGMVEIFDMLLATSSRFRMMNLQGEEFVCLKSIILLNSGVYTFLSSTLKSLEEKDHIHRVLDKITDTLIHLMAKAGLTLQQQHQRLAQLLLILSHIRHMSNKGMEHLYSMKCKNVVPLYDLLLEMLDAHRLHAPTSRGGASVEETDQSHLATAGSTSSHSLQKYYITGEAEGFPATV
Briefly: U2OS-ERα/3xERE luciferase reporter cell line (full-length receptor). The note with it: for luciferase activity in ERα reporter cell lines: even at 10 μM concentration.

Where two headings read alike, the source gives them in different places.

A word on the EC50: it is the concentration giving half of the maximal effect. For the compound `CCC(=O)[C@@]1(C)CC[C@H]2[C@@H]3CCC4=CC(=O)CCC4=C3CC[C@@]21C` [Promegestone (R5020), promegestone], the EC50 in test [1] (read-out: Log EC50 (converted)) was greater than 10000 nM; in test [2] (read-out: Log EC50 (converted)), greater than 3160 nM; in test [3], greater than 10000 nM; in test [4], greater than 10000 nM.

Consider `C#C[C@]1(O)CC[C@H]2[C@@H]3CCC4=Cc5oncc5C[C@]4(C)[C@H]3CC[C@@]21C` [Danazol, danazol], for which the EC50 in test [1] (read-out: Log EC50 (converted)) is greater than 10000 nM; in test [2] (read-out: Log EC50 (converted)), greater than 10000 nM; in test [3], 245 nM; in test [4], 4370 nM.

For `O=c1c(-c2ccc(O)cc2)coc2cc(O)cc(O)c12` [Genistein, genistein], the 50% effective concentration (EC50) in test [1] and in test [2] was greater than 10000 nM in each case.

As for `CC[C@@H]1Cc2cc(O)ccc2C2=C1c1ccc(O)cc1C[C@H]2CC` (relative stereo) [R.R-THC, (R,R)-cis-diethyltetrahydro-2,8-chrysenediol], the “Log EC50” value in test [1] and in test [2] was greater than -5.00 M in each case. Also, the “Log IC50” value in test [1] and in test [2] was greater than -5.00 M in each case.

In the case of `C[C@]12CC[C@@H]3c4ccc(O)cc4C[C@@H](CCCCCCCCC[S+]([O-])CCCC(F)(F)C(F)(F)F)[C@H]3[C@@H]1CC[C@@H]2O` (stereo partly shown) [ICI 182.780], in test [1], the “Log EC50” value was greater than -5.00 M and the “Log IC50” value is listed as greater than -5.00 M. In test [2], the “Log EC50” value is given as greater than -5.00 M and the “Log IC50” value is reported as greater than -5.00 M.

Regarding `C[C@]12C[C@H](O)[C@H]3[C@@H](CCC4=CC(=O)CC[C@@]43C)[C@@H]1CC[C@@H]2C(=O)CO` [Corticosterone, corticosterone], the EC50 in test [1] (read-out: Log EC50 (converted)) is 269 nM; in test [2] (read-out: Log EC50 (converted)), 5.89 nM; in test [3], greater than 10000 nM; in test [4], greater than 10000 nM.

On to `C[C@H]1C[C@H]2[C@@H]3CCC4=CC(=O)C=C[C@]4(C)[C@@]3(Cl)[C@@H](O)C[C@]2(C)[C@@]1(O)C(=O)CO` [Beclomethasone, beclomethasone], for which the “Log EC50” value is greater than -5.00 M in test [3] (agonist mode, ERα^wt-LBD/9xGal4UAS, 20 h, log10 of molar EC50, mean ± SEM) and greater than -5.00 M in test [4] (agonist mode, ERα/3xERE, 20 h, value is log10 of molar EC50, mean ± SEM). Moreover, the “Log IC50” value in test [3] (antagonist mode, ERα^wt-LBD/9xGal4UAS, in the presence of 1 nM E2, log10 of molar IC50, mean ± SEM) was greater than -5.00 M; in test [4] (antagonist mode, ERα/3xERE, in the presence of 1 nM E2, log10 of molar IC50, mean ± SEM), greater than -5.00 M. For the same compound, the “luciferase activity in ERα reporter cell lines” value in test [4] was “did not find any sign of luciferase activity”.

Regarding `C[C@]12CCC(=O)C=C1CC[C@@H]1[C@@H]2[C@@H](O)C[C@]2(C=O)[C@@H](C(=O)CO)CC[C@@H]12` [Aldosterone, aldosterone], the EC50 was 1150 nM in test [1] (read-out: Log EC50 (converted)), 30.2 nM in test [2] (read-out: Log EC50 (converted)), greater than 10000 nM in test [3] and greater than 10000 nM in test [4].

Consider `CCCc1c(-c2ccc(O)cc2)nn(-c2ccc(O)cc2)c1-c1ccc(O)cc1` [PPT, propyl pyrazole triol], for which the EC50 in test [1] (read-out: Log EC50 (converted)) is greater than 10000 nM; in test [2] (read-out: Log EC50 (converted)) it was greater than 10000 nM; in test [3], 2.4 nM; in test [4] it was 1.7 nM.

For the compound `C[C@]12C=CC(=O)C=C1CC[C@H]1[C@@H]3C[C@@H](O)[C@](O)(C(=O)CO)[C@@]3(C)C[C@H](O)[C@@]12F` [Triamcinolone, triamcinolone], the EC50 in test [1] (read-out: Log EC50 (converted)) is 10.2 nM; in test [2] (read-out: Log EC50 (converted)), 4.68 nM; in test [3] it was greater than 10000 nM; in test [4], greater than 10000 nM. Further, the “luciferase activity in ERα reporter cell lines” value in test [4] is given as “did not find any sign of luciferase activity”.
